Reference: patent US6479437B1, “Herbicidal mixture containing a 3-heterocyclyl-substituted benzoyl derivative” (priority 1998, dated 2002)

Columns and labels:
Assay type in all cases: in vivo
Settings in all cases: adjuvant 0.25 and ENSOL 28 0.375 kg/ha where added, scale 0-100
ZEAMX (Zea mays, corn) = test: Selective herbicidal activity post-emergence in the greenhouse (crop phytotoxicity)
Procedure: (§1) The culture containers used were plastic pots containing loamy sand with approximately 3.0% of humus as substrate. The seeds of the test plants were sown separately for each species.
(§2) For the post-emergence treatment, the test plants were grown to a plant height of from 3 to 15 cm, depending on the plant habit, and only then treated with the herbicidal mixture which had been suspended or emulsified in water. To this end, the test plants were either sown directly and grown in the same containers, or they were first grown separately as seedlings and transplanted into the test containers a few days prior to treatment.
(§3) Depending on the species, the plants were kept at 10-25° C. or 20-35° C. The test period extended over 2 to 4 weeks. During this time, the plants were tended, and their response to the individual treatments was evaluated.
(§4) Evaluation was carried out using a scale of from 0 to 100. 100 means no emergence of the plants, or complete destruction of at least the aerial parts, and 0 means no damage or normal course of growth.

[1] = test system: ABUTH (Abutilon theophrasti, velvetleaf); test: Selective herbicidal activity post-emergence in the greenhouse
Procedure: as §1, §2, §3, §4

[2] = test system: CHEAL (Chenopodium album, lambsquarters); test: as above
Procedure: as §1, §2, §3, §4

[3] = test system: ECHCG (Echinochloa crus-galli, barnyardgrass); test: as above
Procedure: as §1, §2, §3, §4

[4] = test system: POLPE (Polygonum persicaria, lady's thumb); test: as above
Procedure: as §1, §2, §3, §4

[5] = test system: SETVI (Setaria viridis, green foxtail); test: as above
Procedure: as §1, §2, §3, §4

[6] = Table 1, EX. 1 0.0078 kg/ha a.s.
[7] = Table 2, EX. 1 0.0625 kg/ha a.s.
[8] = Table 8, EX. 1 0.0625 kg/ha a.s.
[9] = Table 20, EX. 1 0.0078 kg/ha a.s.
[10] = Table 5, EX. 1 0.0312 kg/ha a.s.
[11] = Table 11, EX. 1 0.0078 kg/ha a.s.
[12] = Table 17, EX. 1 0.0078 kg/ha a.s.
[13] = Table 19, EX. 1 0.0078 kg/ha a.s.
[14] = Table 21, EX. 1 0.0078 kg/ha a.s.

## Cn1ncc(C(=O)c2ccc(S(C)(=O)=O)c(C3=NOCC3)c2Cl)c1O [EX. 1]
ZEAMX (Zea mays, corn); [6]
  Phytotoxicity ZEAMX: 0
ZEAMX (Zea mays, corn); [7]
  Phytotoxicity ZEAMX: 0
ZEAMX (Zea mays, corn); [8]
  Phytotoxicity ZEAMX: 0
ZEAMX (Zea mays, corn); [9]
  Phytotoxicity ZEAMX: 0
[1]; Table 4, EX. 1 0.0156 kg/ha a.s.
  Phytotoxicity ABUTH: 20
[1]; [10]
  Phytotoxicity ABUTH: 75
[1]; Table 16, EX. 1 0.0156 kg/ha a.s.
  Phytotoxicity ABUTH: 20
[2]; [6]
  Phytotoxicity CHEAL: 20
[2]; [7]
  Phytotoxicity CHEAL: 50
[2]; Table 6, EX. 1 0.0078 kg/ha a.s.
  Phytotoxicity CHEAL: 20
[2]; Table 7, EX. 1 0.0156 kg/ha a.s.
  Phytotoxicity CHEAL: 20
[2]; Table 10, EX. 1 0.0078 kg/ha a.s.
  Phytotoxicity CHEAL: 20
[2]; [11]
  Phytotoxicity CHEAL: 20
[2]; Table 12, EX. 1 0.0156 kg/ha a.s.
  Phytotoxicity CHEAL: 20
[2]; Table 13, EX. 1 0.0156 kg/ha a.s.
  Phytotoxicity CHEAL: 20
[2]; Table 14, EX. 1 0.0156 kg/ha a.s.
  Phytotoxicity CHEAL: 20
[3]; Table 3, EX. 1 0.0625 kg/ha a.s.
  Phytotoxicity ECHCG: 50
[3]; [10]
  Phytotoxicity ECHCG: 030
[3]; [8]
  Phytotoxicity ECHCG: 50
[3]; Table 9, EX. 1 0.0625 kg/ha a.s.
  Phytotoxicity ECHCG: 50
[3]; Table 15, EX. 1 0.0625 kg/ha a.s.
  Phytotoxicity ECHCG: 50
[4]; [12]
  Phytotoxicity POLPE: 20
[4]; Table 18, EX. 1 0.0078 kg/ha a.s.
  Phytotoxicity POLPE: 70
[4]; [13]
  Phytotoxicity POLPE: 70
[4]; [14]
  Phytotoxicity POLPE: 70
[5]; [11]
  Phytotoxicity SETVI: 30
[5]; [12]
  Phytotoxicity SETVI: 30
[5]; [13]
  Phytotoxicity SETVI: 40
[5]; [9]
  Phytotoxicity SETVI: 40
[5]; [14]
  Phytotoxicity SETVI: 40
